Laboratory results taken from patent US10857105B2, “Compounds and compositions for intracellular delivery of therapeutic agents” (ModernaTX, Inc., priority 2017, dated 2020).
Marks after values point to notes of the source that are not given here.

Legend:
[1] = test system: sC5b-9; assay: Complement activation: sC5b-9 levels in human cells contacted in vitro with nanoparticle compositions; type: cell-based
Experimental: Complement activation assists in the clearance of pathogens from an organism. As it is undesirable that a subject's body recognize a nanoparticle composition as a foreign invader, low complement system activation upon administration of such a composition is preferred. The complex sC5b-9 is a marker for the activation of the complement system. Thus, human cells were contacted in vitro with nanoparticle compositions according to Table 1A and were evaluated for sC5b-9 levels.

[2] = test system: IP-10; assay: Cytokine induction (IP-10) in rats after intravenous administration; type: in vivo, rat; details: for IP-10 induction: rat, 48 hours
Experimental: The expression of hEPO and cytokine induction in rats intravenously administered a nanoparticle composition at a dose of 2.0 mpk was measured at 6 h.
Table 19A summarizes the hEPO expression, IP-10 induction, liver and spleen levels, and alanine aminotransferase (ALT) and aspartate aminotransferase (AST) measured upon intravenous administration of formulations including Compounds 48, 49, and 50 to rat at 0.2 and 2 mpk and hEPO mRNA. hEPO concentrations were measured 6 hours after administration, while cytokine induction and liver and spleen levels were measured 48 hours after administration. hEPO and IP-10 concentrations are presented in pg/ml, while liver levels are provided in ng/g. ALT and AST levels are presented in international units.

[3] = MC3 single cell necrosis in rat liver and liver enzymes (ALT, AST); type: in vivo; details: rats, 0.3 mg/kg MC3-based LNP
Experimental: FIG. 37 is a series of graphs illustrating MC3 single cell necrosis in rat liver and liver enzyme. The top row is a pair of images of livers of rats administered with 0.3 mg/kg of a […] (LNP) not containing an mRNA (right) and PBS (phosphate buffered saline) as a control (left). The bottom row is a pair of graphs showing expression of ALT (left) and AST(right) in the liver following administration of a 0.3 mg/kg of a MC3-based LNP containing an mRNA.

[4] = test system: Sprague Dawley rat liver; assay: Lipid remaining in rat liver tissue 48 h post dose (LC-MS/MS); type: in vivo; details: Sprague Dawley rat liver 48 h after 2 mg/kg bolus dose mRNA
Text: Similar results were obtained in the Sprague Dawley rats using human erythropoietin (hEPO) encoding mRNA (FIG. 29C). […] Compound 18 and compound 25 provided a good balance of delivery efficiency and pharmacokinetics.

[5] = Complement activation indicators in non-human primates; type: in vivo
Experimental: (§1) The tolerability and efficacy of nanoparticle compositions to non-human primates was also investigated using a sample formulation including Compound 18. The formulation was prepared according to the standard MC3 formulation described above and included an hEPO mRNA. Primates were administered a single dose of 0.05 (Group 1), 0.3 (Group 2), or 1.0 (Group 3) mpk via intravenous infusion for 60 minutes. Three primates were administered each dose. Expression of hEPO was measured prior to dosing and at 2, 6, 24, 48, and 96 hours post-treatment (Table 26). Table 28 includes levels of indicators of complement activation, while Table 29 includes cytokine induction data.

[6] = Tolerability (AST, ALT, clinical signs, hematology) in non-human primates; type: in vivo; details: single dose 0.05, 0.3 or 1.0 mpk, intravenous infusion 60 minutes
Experimental: as §1
In general, lower doses were better tolerated. High doses induced body temperature elevation and hunched posture, which is similar to the behavior observed for primates administered higher doses of MC3 formulations.

[7] = One month toxicology evaluation in cynomolgus monkeys (serum ALT, AST, C5b9, MCP-1); type: in vivo; details: 1 mg/kg mRNA
Experimental: FIGS. 32A-32C are a series of graphs summarizing the results of a one month toxicology evaluation in rat and non-human primate. PBS (phosphate buffered saline) was used as a control. […] The serum levels were measured 24 post fifth dose (n=4). […] The serum levels were measured 24 post fifth dose (n=4).
FIGS. 33A and 33B are a pair of graphs summarizing the results of a one month toxicology evaluation in rats and non-human primates.
FIG. 38 is a graph showing mRNA levels in NHP after repeat dosing over the course of 29 days.

[8] = test system: Sprague Dawley rat; assay: One-month toxicological evaluation with weekly dosing in rat; type: in vivo
Experimental: Serum ALT and AST levels: Samples were analyzed using a Modular Analytics analyzer.
Next, tolerability and safety of the compound 18-based LNPs in vivo was tested. A full toxicological evaluation of compound 18-based LNPs in both Sprague Dawley rat and cynomolgus monkey was performed using a standard one-month study with weekly dosing at three dose levels in each species. Rats were dosed at 0.05, 0.5, and 2 mg/kg and a non-human primates was dosed at 0.1, 0.3, and 1 mg/kg. LNP-related toxicities associated with MC3-based LNP systems are generally associated with immunological (cytokine and complement activation) and hepatic injury. […] FIGS. 32 and 33 highlight the day 30 levels of alanine transferase (ALT, FIG. 32A) and aspartate aminotransferase (AST, FIG. 32B), two indicators of liver damage.

[9] = test system: LDLr knockout mice; assay: Expression study in LDLr knockout mice; type: in vivo; details: compound 18 based LNPs
[10] = in vivo; details: male, Sprague-Dawley, rat, iv
Experimental: LNP administration to animals: mRNA-LNPs diluted in phosphate buffered saline (PBS) were injected intravenously (5 mL/kg) into female CD-1 female mice (18 to 22 g in body weight) and male Sprague-Dawley rats (225-250 g in body weight) via the tail vein using 29 g, 3/10 cc insulin syringes (mice) or 27 g, 1 mL syringes (rats) after gentle warming of the animals using a heat lamp for 3 minutes.
Protein was precipitated and analyzed against calibration standards prepared in matching blank. Chromatographic separation and quantification was accomplished with a LC-MS/MS System. Samples were injected and separated via HPLC A triple-quadrupole MS/MS system operated in positive ion mode was used for signal detection.
PK analysis of the individual plasma and tissue concentration data was performed using anon-validated program (Phoenix WinNonlin®, Version 7.0 (Pharsight Corp., Mountain View, Calif.)). Kinetic parameters were estimated using a noncompartmental model (Plasma (200-202), Uniform weighting, extravascular dosing with sparse sampling). The AUG was calculated using the linear trapezoidal rule. All derived parameters are reported to 3 significant figures with the exception of time to peak concentration (Tmax) and halflife (HL), which are reported to one decimal place. No further statistical analyses were performed on the plasma concentration data or derived pharacokinetic parameters.

[11] = 60 min infusion, dosed weekly, after fifth dose (n=4)

CCCCCC=CCC=CCCCCCCCCC(CCCCCCCCC=CCC=CCCCCC)OC(=O)CCCN(C)C (centres unmarked) [MC3, heptatriaconta-6,9,28,31-tetraen-19-yl 4-(dimethylamino)butanoate, reference compound]
Fold increase in sC5b-9 levels versus saline [1]: 0.73 | IP-10 induction ([2]; intravenous 0.2 mpk): 2 pg/mL | IP-10 induction ([2]; intravenous 2 mpk): 596 pg/mL | IP-10 ([2]; rats, intravenous 2.0 mpk, hEPO nanoparticle compositions, 6 hours): 688.3 pg/mL | ALT, AST and liver pathology [3]: ALT and AST were elevated and pathology showed evidence of necrosis | % dose remaining Rat liver tissue, 48 h [4]: 61^e %

CCCCCCCCCOC(=O)CCCCCCCN(CCO)CCCCCCCC(=O)OC(CCCCCCCC)CCCCCCCC [Compound 18, Heptadecan-9-yl 8-((2-hydroxyethyl)(8-(nonyloxy)-8-oxooctyl)amino)octanoate]
Bb fragment ([5]; Group 1 (0.05 mpk), 2 h): 5341 ng/mL | C5b9 ([5]; Group 1 (0.05 mpk), 2 h): 1959 ng/mL | Bb fragment ([5]; Group 1 (0.05 mpk), 6 h): 3037 ng/mL | C3a ([5]; Group 1 (0.05 mpk), 6 h): 12385 ng/mL | C5b9 ([5]; Group 1 (0.05 mpk), 6 h): 786 ng/mL | Bb fragment ([5]; Group 1 (0.05 mpk), 24 h): 1496 ng/mL | C3a ([5]; Group 1 (0.05 mpk), 24 h): 11596 ng/mL | Bb fragment ([5]; Group 1 (0.05 mpk), Day 5): 1273 ng/mL | C3a ([5]; Group 1 (0.05 mpk), Day 5): 11945 ng/mL | Bb fragment ([5]; Group 1 (0.05 mpk), Predose): 1375 ng/mL | C5b9 ([5]; Group 1 (0.05 mpk), Predose): 169 ng/mL | Bb fragment ([5]; Group 2 (0.3 mpk), 2 h): 5356 ng/mL | C5b9 ([5]; Group 2 (0.3 mpk), 2 h): 393 ng/mL | Bb fragment ([5]; Group 2 (0.3 mpk), 6 h): 7157 ng/mL | C3a ([5]; Group 2 (0.3 mpk), 6 h): 32436 ng/mL | C5b9 ([5]; Group 2 (0.3 mpk), 6 h): 1333 ng/mL | Bb fragment ([5]; Group 2 (0.3 mpk), 24 h): 3680 ng/mL | C3a ([5]; Group 2 (0.3 mpk), 24 h): 19721 ng/mL | Bb fragment ([5]; Group 2 (0.3 mpk), Day 5): 2400 ng/mL | C3a ([5]; Group 2 (0.3 mpk), Day 5): 16207 ng/mL | Bb fragment ([5]; Group 2 (0.3 mpk), Predose): 1461 ng/mL | C5b9 ([5]; Group 2 (0.3 mpk), Predose): 157 ng/mL | Bb fragment ([5]; Group 3 (1.0 mpk), 2 h): 8849 ng/mL | C5b9 ([5]; Group 3 (1.0 mpk), 2 h): 801 ng/mL | Bb fragment ([5]; Group 3 (1.0 mpk), 6 h): 12820 ng/mL | C3a ([5]; Group 3 (1.0 mpk), 6 h): 51996 ng/mL | C5b9 ([5]; Group 3 (1.0 mpk), 6 h): 2928 ng/mL | Bb fragment ([5]; Group 3 (1.0 mpk), 24 h): 8601 ng/mL | C3a ([5]; Group 3 (1.0 mpk), 24 h): 35843 ng/mL | Bb fragment ([5]; Group 3 (1.0 mpk), Day 5): 2834 ng/mL | C3a ([5]; Group 3 (1.0 mpk), Day 5): 19101 ng/mL | Bb fragment ([5]; Group 3 (1.0 mpk), Predose): 1529 ng/mL | C5b9 ([5]; Group 3 (1.0 mpk), Predose): 238 ng/mL | Tolerability [6]: tolerated similarly to the MC3 formulation | Serum alanine aminotransferase levels [7, 11]: No statistical difference between PBS pre-dose and day 30 levels | Serum aspartate aminotransferase levels [7, 11]: No statistical difference between PBS pre-dose and day 30 levels | MCP-1 serum concentration ([7]; day 1 and day 29 (n=4)): no statistical difference between PBS and Compound 18 at any other timepoint | ALT and AST levels, day 30, relative to PBS control ([8]; any dose level): minimal elevation | toxicological findings ([8]; weekly dosing one month, 0.05, 0.5 and 2 mg/kg): no adverse findings | expression in LDLr knockout mice [9]: almost complete loss in expression | half-life [10]: 5.8 h
